Test results as given in publication PMC9071099, “Towards an advanced testing strategy for genotoxicity using image-based 2D and 3D HepG2 DNA damage response fluorescent protein reporters” (Mutagenesis, 2021).
Like-named read-outs stand apart in the source and are kept apart here.

Key:
BTG2-GFP HepG2 reporter = assay type: cell-based
Procedure: (§1) The HepG2 BAC-GFP reporters for human BTG2, p21 and p53 were generated previously and used to monitor the DDR ([14],[18]). Cells were maintained in DMEM high glucose (Gibco) supplemented with 10% (v/v) fetal bovine serum (FBS), 25 U/ml penicillin and 25 µg/ml streptomycin (referred to as normal DMEM medium) at 37°C and 5% CO2. The reporter cells were tested between passages 19–21 throughout the data presented (Supplementary Figure 1, available at Mutagenesis Online).
(§2) Two different compound exposure scenarios were performed: a single exposure in 2D and a 4-day repeated exposure in 3D. A schematic overview of the tested exposure scenarios for each HepG2 model has been depicted in Figure 1. For the single exposure scenario in 2D, medium was replaced by freshly diluted compound in medium 24 h post seeding. DDRs were monitored after 24, 48 and 72 h by live cell confocal imaging (Figure 1A and B). For the 4-day repeated exposure scenario in 3D, each day medium was replaced by freshly diluted compound in medium for four consecutive days (Figure 1C and D). The imaging was started 24 h after the last exposure. For both scenarios, five compounds in eight concentrations were tested. DMSO, PBS or ultrapure H2O were used as solvent controls. The ATP-lite luminescence kit (Perkin Elmer) was used according to supplier’s protocol to measure cell viability. Measurements were performed 72 h or 24 h post single or repeated exposure, respectively. Absolute IC50 values have been calculated over the ATP-lite data by determining the intersect of the fitted concentration–response curve with the 50% viability baseline via GraphPad prism 8.1.1.
(§3) Prior to imaging, cells were stained with Hoechst 33342 at a concentration of 0.1 µg/ml to visualise the nuclei. To examine compound-induced cell death using confocal microscopy, propidium iodide (PI) was added during all compound exposures at a concentration of 100 µM to stain for necrotic or late apoptotic cells. The induction of GFP intensities and PI were monitored with a Nikon Eclipse Ti confocal laser microscope (Nikon, Amsterdam, The Netherlands), equipped with lasers at wavelengths 408, 488 and 561, an automated stage and perfect focus system at 37°C and 5% CO2. Images for 2D cultures were acquired with a Nikon 20x Dry Plan Apo VC NA 0.75 objective. Images for 3D cultures were acquired with a Nikon 10x Dry Plan Fluor NA 0.3 objective. For each condition, a z-stack of 9–11 images was generated with a step size of 30 µm.
(§4) For 2D cultures, image quantification was performed with Cell Profiler version 2.2.0 (Broad Institute, Cambridge, USA) using modules described previously ([14]). Nuclei segmentation based on Hoechst was done in ImageJ using an in-house developed macro based on the watershed masked clustering algorithm ([27]). Segmentation of the cytoplasmic area was done using the Distance N method expanding the edges of nuclear objects with six pixels followed by subtraction of the nuclear area. p21 and p53-GFP intensities were measured in the nuclei and BTG2-GFP in the cytoplasm. The PI-positive cells were identified by an overlay of the PI signal and the segmented nuclei. A cell was considered positive when there was at least 10% overlap. Results were stored in HDF5 format ([28]). To extract summarised data for further analysis and visualisation, in-house developed R-scripts were used in RStudio (version 1.0.153) (Boston, MA, USA) ([29–31]). The mean nuclear and cytoplasmic intensities of all measured single cells and the fraction of PI-positive cells for each image were extracted as output from the HDF5 files.
(§5) For 3D cultures, the NIS Elements analysis software (Nikon, Amsterdam, The Netherlands) was used to quantify the GFP intensity and PI-positive area within spheroids.

[1] = tested on: p53 pathway activation (p53-GFP, p21-GFP, BTG2-GFP HepG2 reporters); assay type: cell-based; conditions: for DDR (p21 and p53 activation): 3D, 4-day repeated dosing
Procedure: as §1, §2, §3, §4, §5

p53-GFP HepG2 reporter = test: p53-GFP reporter activation, live cell confocal imaging; assay type: cell-based, human; conditions: 2D, normal DMEM medium
Procedure: as §1
Two different compound exposure scenarios were performed: a single exposure in 2D and a 4-day repeated exposure in 3D. A schematic overview of the tested exposure scenarios for each HepG2 model has been depicted in Figure 1. For the single exposure scenario in 2D, medium was replaced by freshly diluted compound in medium 24 h post seeding. DDRs were monitored after 24, 48 and 72 h by live cell confocal imaging (Figure 1A and B). […] The ATP-lite luminescence kit (Perkin Elmer) was used according to supplier’s protocol to measure cell viability. […]
Prior to imaging, cells were stained with Hoechst 33342 at a concentration of 0.1 µg/ml to visualise the nuclei. […] The induction of GFP intensities and PI were monitored with a Nikon Eclipse Ti confocal laser microscope (Nikon, Amsterdam, The Netherlands), equipped with lasers at wavelengths 408, 488 and 561, an automated stage and perfect focus system at 37°C and 5% CO2. […]

PHH = tested on: PHH; parameters: method as in PMID 32318794; conditions: cited from earlier work

Cc1c(-c2ccc(-c3ccccc3F)cc2)nc2ccc(F)cc2c1C(=O)O [Brequinar]
BTG2-GFP response across culture conditions (BTG2-GFP HepG2 reporter; four culture conditions): only induced BTG2-GFP responses in the proliferating HepG2 cultured in 2D in normal DMEM medium | DDR (p21 and p53 activation) ([1]; AAGLY medium): induced a DDR (p21 and p53 activation) at the highest concentration | DDR (p21 and p53 activation) ([1]; normal DMEM medium): not seen | DDR ([1]; 24 h after exposure): no DDR was observed | maximal p53 induction compared to other reporters (p53-GFP HepG2 reporter): ~ 3 fold

N.N.[Cl][Pt][Cl] [Cisplatin]
DDR detection (PoD) ([1]; 2D culturing, AAGLY medium): could not be detected | concentration giving clear reporter activation ([1]; AAGLY medium or 3D culture): ≥ 10 µM | PoD of reporter activation ([1]; HepG2 2D, normal DMEM medium): 0.32 to 1.83 µM | concentration giving clear concentration-dependent reporter activation ([1]; all DNA damage reporters, 2D, normal DMEM medium): ≥ 0.46 µM | PoD (CometChip) (PHH): 6.3 µM

Nc1ccn([C@@H]2O[C@H](CO)[C@@H](O)C2(F)F)c(=O)n1 [Gemcitabine]
BTG2-GFP response across culture conditions (BTG2-GFP HepG2 reporter; human): only induced BTG2-GFP responses in the proliferating HepG2 cultured in 2D in normal DMEM medium | PoD of reporter activation [1]: did not induce a quantifiable genotoxic effect | genotoxic effects (reporter activation) [1]: almost absent | PoD of reporter activation ([1]; human): ≤ 0.028 µM

Aflatoxin B1
concentration of peak BTG2-GFP induction (BTG2-GFP HepG2 reporter): 10 µM | concentration at which reporter induction was already observed [1]: 0.1 µM | induction of DNA damage reporters [1]: induced DNA damage reporters (BTG2, p21 and p53) in all culture conditions | reporter induction [1]: ≤ 4.5 fold
